Reference: patent US20100210556A1, “USE OF A PEPTIDE AS A THERAPEUTIC AGENT” (priority 2007, published 2010)
Where no end group is shown, it is not given here. [ ]: non-standard residue; d: D form. βAla = NCCC(=O)O

Legend:
HIV-1IIIB = assay type: cell-based; details: CEM-SS T-cells, peptides 10 micrograms per ml, 6 days post-infection, MTS
HUVEC = assay: Endothelial tube formation assay; assay type: cell-based, human; details: 10 micrograms per ml, 20 hours
From the text: Positive control was vehicle only. […] Raw data were expressed as average tubule lenghs in pixels±standard deviation.

A549 cells = assay: Apoptosis prevention assay (C2 ceramide, Annexin-5); assay type: cell-based; details: human lung cells (A549), 10 micrograms per ml, 30 min pretreatment
Protocol: Human A549 cells (carcinomic human alveolar basal epithelial cells) were utilized in the experiments employing the Annexin-5 apoptosis assay. […] A549 cells were pretreated for 30 min with test peptides —10 micrograms per ml—followed by the exposure to C2 ceramide. […] C2 ceramide is a synthetic, membrane soluble analog of ceramide.

murine spleen cells = assay: Th1/Th2 cytokine profiling assay (Ovalbumin-restimulated spleen cells, CBA kit); assay type: cell-based, Balb/c mice; details: 10 micrograms per ml, Ovalbumin restimulation, 72 hours
From the text: The Balb/c mice (originated in 1923, it is a popular strain and is used in many different research disciplines. Also classified as an inbred from the production of 20 or more successive brother-sister matings, the Balb/c mouse is albino and small in size) were immunized on Days 1, 15, and 29 with Ovalbumin (Ovalbumin is the main protein found in egg white, commonly used to stimulate an immunological reaction in test animals) in PBS (5 micrograms/injection). On day 50, spleens of the mice were harvested (3 weeks after last boost with Ovalbumin). Cells were cultured (2×10^5/well in triplicate) and incubated with culture medium or test peptides —10 micrograms per ml—for 30 min. Thereafter, additional Ovalbumin was added to the cells at 10 micrograms/ml for in vitro restimulation of the cells. 72 hours later, cell supernatants were harvested and assayed using the Becton Dickinson Mouse Th1/Th2 Cytokine CBA Kit. This kit can be used to measure Interleukin-2 (IL-2), Interleukin-4 (IL-4), Interleukin-5 (IL-5), Interferon-γ (IFN-γ), and Tumor Necrosis Factor-α(TNF-α) protein levels in a single sample.

[1] = test system: Primary Human endothelial cells (HUVEC); assay: Endothelial cell migration assay; assay type: cell-based; details: 10 micrograms per ml, 22 hours
Protocol: Thereafter, designated concentration of testing peptides —10 micrograms per ml—was added in duplicate wells.

HCMV strain AD169 = assay: HCMV plaque formation assay in MRC-5 cells; details: HCMV AD169, 10 micrograms per ml, 7-10 days
RAW 264.7 cells = assay: Phagocytosis assay (Fluorescein-labeled Escherichia coli, flow cytometry); details: 10 micrograms per ml, 30 min preincubation, 60 min ingestion
Protocol: RAW 264.7 (Mouse leukaemic monocyte macrophage cell line) cells were obtained from ATCC and grown in RPMI 1640 medium containing 10% FBS. Cells were incubated in 12×75 mm tubes at 37° C. with test peptides —10 micrograms per ml—for 30 min prior to adding Fluorescein-labeled Escherichia coli bacteria as the agent to be ingested. After the cells were incubated for additional 60 min at 37° C. and allowed to ingest the Fluorescein-labeled Escherichia coli bacteria, cells were fixed with 1% paraformaldehyde. The samples were then analyzed by flow cytometry to determine the amount of phagocytosis as a function of brightness (the greater the phagocytic activity, the more fluorescence in the macrophage population). Data are reported as % positive and the mean fluorescence intensity (MFI) of positively stained cells.

[2] = test system: hepatitis B virus (HBV) ayw strain; assay: HBV assay in HepG2-2.2.15 cells, secreted HBV DNA by TaqMan PCR; assay type: cell-based; details: 10 micrograms per ml, six days, HBV DNA in supernatant

| Compound | inhibition of HIV-1 activity (antiviral activity) (HIV-1IIIB) | inhibition of the tube formation of human endothelial cells (HUVEC) | reduction of ceramide-induced apoptosis (A549 cells) | change of the production of IFN-gamma (murine spleen cells) | change of the production of IL-4 (murine spleen cells) | change of the production of IL-5 (murine spleen cells) | change of the production of TNF-alpha (murine spleen cells) | induction of the production of IL-2 (murine spleen cells) | inhibition of the migration of human endothelial cells [1] | inhibition of HCMV plaque formation as compared to the virus control experiment (HCMV strain AD169) | induction of phagocytosis as compared to the control experiment (RAW 264.7 cells) | inhibition of HBV replication as compared to the virus control infection [2] |
| --- | --- | --- | --- | --- | --- | --- | --- | --- | --- | --- | --- | --- |
| CC(C)(C)NC(=O)[C@@H]1CN(Cc2cccnc2)CCN1C[C@@H](O)C[C@@H](Cc1ccccc1)C(=O)N[C@H]1c2ccccc2C[C@H]1O [indinavir] | expected levels of antiviral activity |  |  |  |  |  |  |  |  |  |  |  |
| Cc1cn([C@H]2C[C@H](N=[N+]=[N-])[C@@H](CO)O2)c(=O)[nH]c1=O [AZT] | expected levels of antiviral activity |  |  |  |  |  |  |  |  |  |  |  |
| Ala-Ile-Phe-Ile-Phe-Ile-Arg-Trp-Leu-Leu-Lys-Leu-Gly-His-His-Gly-Arg-Ala-Pro-Pro-OH (AIFIFIRWLLKLGHHGRAPP-OH) [Peptide 1] |  | 23% | 28.2% | did not significantly change | did not significantly change | did not significantly change | did not significantly change | 156% | 19% | did not inhibit | did not induced phagocytosis | 44.6% |
| [βAla]-His-OH [Peptide 2] |  | 21% | did not reduce | did not significantly change | did not significantly change | did not significantly change | did not significantly change | 26.5% | 8% | 4.4% | 48.6% | 29.6% |
